pIC50: −log10 of the molar value.

The test has as its target T1, purified recombinant full length PKC theta (Panvera, P2996) (Homo sapiens, UniProt Q04759).
T1 construct: purified recombinant full length PKC theta (Panvera, P2996); purchased Panvera P2996
In words: Radioactive kinase assay for inhibition of full length (FL) PKCθ. It is filed as biochemical. To be noted: average value. As for the experimental part:
This assay is based on the phosphorylation of a biotinylated substrate by a kinase utilizing radiolabeled ATP (ATP γ P33). The substrate was a biotinylated peptide with a sequence of biotin-[…]-C(O)NH2. […] The assay buffer was composed of 100 mM Hepes, pH7.5, 2 mM MgCl2, 20 mM β-glycerophosphate and 0.008% TritonX 100. A reaction mixture of ATP, ATP γ P33 (PerkinElmer), DTT, and the enzyme was prepared in the assay buffer and added to a 96-well polypropylene plate. The compound (diluted in DMSO in a separate 96-well polypropylene plate) was added to the reaction mixture and incubated at room temperature. Following the incubation, the peptide substrate was added to the reaction mixture to initiate the enzymatic reaction. The reaction was terminated with the addition of a stop solution (100 mM EDTA, 0.2% TritonX100, and 20 mM NaHPO4) and transferred from the assay plate to a washed streptavidin-coated 96-well scintiplate (PerkinElmer). […] Counts were recorded for each well as corrected counts per minute (CCPM). The counts were considered corrected because they were adjusted according to a P33 normalization protocol, which corrects for efficiency and background differences between the instrument detectors (software version 4.40.01).
A Radioactive Kinase Assay for Inhibition of Full Length (FL) PKCθ Inhibitors
This assay differs from what was described above in that the enzyme used was purified recombinant full length PKC theta (Panvera, P2996).

T1 sequence (Q04759 whole entry): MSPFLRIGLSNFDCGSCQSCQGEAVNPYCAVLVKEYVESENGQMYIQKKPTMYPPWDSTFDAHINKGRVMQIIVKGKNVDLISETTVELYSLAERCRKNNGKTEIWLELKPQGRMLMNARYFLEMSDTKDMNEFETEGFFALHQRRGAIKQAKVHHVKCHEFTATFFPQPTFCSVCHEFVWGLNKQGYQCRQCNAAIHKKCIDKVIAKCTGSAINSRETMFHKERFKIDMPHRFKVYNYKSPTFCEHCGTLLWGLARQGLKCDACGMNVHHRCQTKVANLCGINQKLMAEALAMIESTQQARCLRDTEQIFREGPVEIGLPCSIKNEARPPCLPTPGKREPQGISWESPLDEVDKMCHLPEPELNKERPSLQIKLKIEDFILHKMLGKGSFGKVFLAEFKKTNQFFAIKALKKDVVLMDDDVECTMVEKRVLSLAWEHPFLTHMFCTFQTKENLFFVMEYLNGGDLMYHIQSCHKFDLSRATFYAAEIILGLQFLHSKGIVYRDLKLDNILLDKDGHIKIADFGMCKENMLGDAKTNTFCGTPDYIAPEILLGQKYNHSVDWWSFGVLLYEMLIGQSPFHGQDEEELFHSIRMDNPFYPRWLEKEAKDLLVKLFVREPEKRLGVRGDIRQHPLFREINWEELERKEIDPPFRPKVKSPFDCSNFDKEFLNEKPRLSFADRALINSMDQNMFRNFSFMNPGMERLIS

The pIC50 is −log10 of the IC50, conventionally taken in molar units. In the case of `N#Cc1cncc(-c2ccccc2-c2cccc(Cl)c2)c1Nc1ccc2[nH]ccc2c1` [Compound 144, 5-(3′-chlorobiphenyl-2-yl)-4-(1H-indol-5-ylamino)nicotinonitrile], the pIC50 was 6.04.

Regarding `N#Cc1cncc(-c2ccccc2-c2ccc(Cl)cc2)c1Nc1ccc2[nH]ccc2c1` [Compound 145, 5-(4′-chlorobiphenyl-2-yl)-4-(1H-indol-5-ylamino)nicotinonitrile], the pIC50 was 5.72.

Regarding `N#Cc1cncc(-c2ccccc2-c2ccsc2)c1Nc1ccc2[nH]ccc2c1` [Compound 146, 4-(1H-indol-5-ylamino)-5-[2-(3-thienyl)phenyl]nicotinonitrile], the negative-log IC50 (pIC50) is 5.88.

As for `CC(=O)Nc1cccc(-c2cncc(C#N)c2Nc2ccc3[nH]ccc3c2)c1` [Compound 152, N-{3-[5-cyano-4-(1H-indol-5-ylamino)pyridin-3-yl]phenyl}acetamide], the pIC50 is 5.71.

For the molecule `COCCOc1cc(-c2cncc(C#N)c2Nc2cccc3[nH]ccc23)ccc1OC` [Compound 153, 4-(1H-indol-4-ylamino)-5-[4-methoxy-3-(2-methoxyethoxy)phenyl]nicotinonitrile], the negative logarithm of the IC50 (pIC50) is 7.40.

In the case of `COCCOc1cc(-c2cncc(C#N)c2Nc2ccc3cc[nH]c3c2)ccc1OC` [Compound 155, 4-(1H-indol-6-ylamino)-5-[4-methoxy-3-(2-methoxyethoxy)phenyl]nicotinonitrile], the negative logarithm of the IC50 (pIC50) is 5.11.

In the case of `COCCOc1cc(-c2cncc(C#N)c2Nc2ccc3ncsc3c2)ccc1OC` [Compound 156, 4-(1,3-benzothiazol-6-ylamino)-5-[4-methoxy-3-(2-methoxyethoxy)phenyl]nicotinonitrile], the pIC50 is under 4.70.

Consider `COCCOc1cc(-c2cncc(C#N)c2Nc2ccc3[nH]c(C)cc3c2)ccc1OC` [Compound 157, 5-[4-methoxy-3-(2-methoxyethoxy)phenyl]-4-[(2-methyl-1H-indol-5-yl)amino]nicotinonitrile], for which the negative logarithm of the IC50 (pIC50) was 6.26.

For `COCCOc1cc(-c2cncc(C#N)c2Nc2ccc3[nH]nnc3c2)ccc1OC` [Compound 158, 4-(1H-1,2,3-benzotriazol-5-ylamino)-5-[4-methoxy-3-(2-methoxyethoxy)phenyl]nicotinonitrile], the negative logarithm of the IC50 (pIC50) was 4.43.

For `COCCOc1ccc(-c2cncc(C#N)c2Nc2ccc3[nH]ccc3c2)cc1OC` [Compound 160, 4-(1H-indol-5-ylamino)-5-[3-methoxy-4-(2-methoxyethoxy)phenyl]nicotinonitrile], the pIC50 was 6.85.

Regarding `COCCOc1ccc(-c2cncc(C#N)c2Nc2ccc3cc[nH]c3c2)cc1OC` [Compound 161, 4-(1H-indol-6-ylamino)-5-[3-methoxy-4-(2-methoxyethoxy)phenyl]nicotinonitrile], the pIC50 was 5.26.

On to `COCCOc1ccc(-c2cncc(C#N)c2Nc2ccc3ncsc3c2)cc1OC` [Compound 162, 4-(1,3-benzothiazol-6-ylamino)-5-[3-methoxy-4-(2-methoxyethoxy)phenyl]nicotinonitrile], for which the pIC50 was 4.82.

Take `COCCOc1ccc(-c2cncc(C#N)c2Nc2ccc3[nH]c(C)cc3c2)cc1OC` [Compound 163, 5-[3-methoxy-4-(2-methoxyethoxy)phenyl]-4-[(2-methyl-1H-indol-5-yl)amino]nicotinonitrile]: the pIC50 is 6.49.

With `N#Cc1cncc(-c2cccc(OCCCl)c2)c1Nc1cccc2[nH]ccc12` [Compound 165, 5-[3-(2-chloroethoxy)phenyl]-4-(1H-indol-4-ylamino)nicotinonitrile], the pIC50 was 7.70.

As for `N#Cc1cncc(-c2cccc(OCCCl)c2)c1Nc1ccc2cc[nH]c2c1` [Compound 166, 5-[3-(2-chloroethoxy)phenyl]-4-(1H-indol-6-ylamino)nicotinonitrile], the negative logarithm of the IC50 (pIC50) was 5.42.

Regarding `N#Cc1cncc(-c2cccc(OCCCl)c2)c1Nc1ccc2[nH]ccc2c1` [Compound 167, 5-[3-(2-chloroethoxy)phenyl]-4-(1H-indol-5-ylamino)nicotinonitrile], the negative logarithm of the IC50 (pIC50) was 6.96.

For the origin of these results see patent publication US7781591B2, “Substituted 3-cyanopyridines as protein kinase inhibitors” (Wyeth LLC, priority 2006, dated 2010).
